#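 Cells were grown in 96-well plates and exposed to each compound for 48 hours at five concentrations; endpoints were interpolated linearly between bracketing concentrations, or set to the highest concentration if not reached. Definition used: TGI = concentration required for complete inhibition of growth.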
# How the values were obtained:
# Experiment in all cases: inhibition of tumour cell growth, NCI panel, 48 h
# 786-0 renal = system: 786-0 renal
# A498 renal = system: A498 renal
# A549 NSCLC = system: A549 NSCLC
# ACHN renal = system: ACHN renal
# BT-549 breast = system: BT-549 breast
# CAKI-1 renal = system: CAKI-1 renal
# CCRF-CEM leukemia = system: CCRF-CEM leukemia
# COLO 205 colon = system: COLO 205 colon
# DU-145 prostate = system: DU-145 prostate
# EKVX NSCLC = system: EKVX NSCLC
# HCC-2998 colon = system: HCC-2998 colon
# HCT-116 colon = system: HCT-116 colon
# HCT-15 colon = system: HCT-15 colon
# HL-60(TB) leukemia = system: HL-60(TB) leukemia
# HOP-92 NSCLC = system: HOP-92 NSCLC
# HS 578T breast = system: HS 578T breast
# HT29 colon = system: HT29 colon
# IGROV1 ovarian = system: IGROV1 ovarian
# K-562 leukemia = system: K-562 leukemia
# KM12 colon = system: KM12 colon
# LOX IMVI melanoma = system: LOX IMVI melanoma
# M14 melanoma = system: M14 melanoma
# MALME-3M melanoma = system: MALME-3M melanoma
# MCF7 breast = system: MCF7 breast
# MDA-MB-231 breast = system: MDA-MB-231 breast
# MDA-MB-435 = system: MDA-MB-435
# MDA-N = system: MDA-N
# MOLT-4 leukemia = system: MOLT-4 leukemia
# NCI-H226 lung = system: NCI-H226 lung
# NCI-H23 lung = system: NCI-H23 lung
# NCI-H460 lung = system: NCI-H460 lung
# NCI-H522 lung = system: NCI-H522 lung
# NCI/ADR-RES ovarian = system: NCI/ADR-RES ovarian
# OVCAR-3 ovarian = system: OVCAR-3 ovarian
# OVCAR-4 ovarian = system: OVCAR-4 ovarian
# OVCAR-5 ovarian = system: OVCAR-5 ovarian
# OVCAR-8 ovarian = system: OVCAR-8 ovarian
# PC-3 prostate = system: PC-3 prostate
# RPMI-8226 leukemia = system: RPMI-8226 leukemia
# SF-268 CNS = system: SF-268 CNS
# SF-295 CNS = system: SF-295 CNS
# SF-539 CNS = system: SF-539 CNS
# SK-MEL-2 melanoma = system: SK-MEL-2 melanoma
# SK-MEL-28 melanoma = system: SK-MEL-28 melanoma
# SK-MEL-5 melanoma = system: SK-MEL-5 melanoma
# SK-OV-3 ovarian = system: SK-OV-3 ovarian
# SN12C renal = system: SN12C renal
# SNB-19 CNS = system: SNB-19 CNS
# SNB-75 CNS = system: SNB-75 CNS
# SW-620 colon = system: SW-620 colon
# T-47D breast = system: T-47D breast
# TK-10 renal = system: TK-10 renal
# U251 CNS = system: U251 CNS
# UACC-257 melanoma = system: UACC-257 melanoma
# UACC-62 melanoma = system: UACC-62 melanoma
# UO-31 renal = system: UO-31 renal
structure (smiles),measurement,setting,value
CC(=O)c1c(-c2ccccc2)c(-c2ccc(OCCN(C)C)cc2)n2ccccc12,TGI,786-0 renal,32.2 µM
same,TGI,A498 renal,39.3 µM
same,TGI,A549 NSCLC,50.7 µM
same,TGI,ACHN renal,29.2 µM
same,TGI,BT-549 breast,30.3 µM
same,TGI,CAKI-1 renal,37.1 µM
same,TGI,CCRF-CEM leukemia,61.1 µM
same,TGI,COLO 205 colon,27 µM
same,TGI,DU-145 prostate,31.8 µM
same,TGI,EKVX NSCLC,43.8 µM
same,TGI,HCC-2998 colon,27.7 µM
same,TGI,HCT-116 colon,26 µM
same,TGI,HCT-15 colon,22.7 µM
same,TGI,HL-60(TB) leukemia,36.3 µM
same,TGI,HOP-92 NSCLC,23.1 µM
same,TGI,HS 578T breast,42.2 µM
same,TGI,HT29 colon,13.6 µM
same,TGI,IGROV1 ovarian,33.3 µM
same,TGI,K-562 leukemia,> 100 µM
same,TGI,KM12 colon,26.5 µM
same,TGI,LOX IMVI melanoma,29.1 µM
same,TGI,M14 melanoma,30.8 µM
same,TGI,MALME-3M melanoma,24.4 µM
same,TGI,MCF7 breast,32.3 µM
same,TGI,MDA-MB-231 breast,31 µM
same,TGI,MDA-MB-435,35.3 µM
same,TGI,MDA-N,29.2 µM
same,TGI,MOLT-4 leukemia,48 µM
same,TGI,NCI-H226 lung,38.3 µM
same,TGI,NCI-H23 lung,36.7 µM
same,TGI,NCI-H460 lung,26 µM
same,TGI,NCI-H522 lung,27.9 µM
same,TGI,NCI/ADR-RES ovarian,33.9 µM
same,TGI,OVCAR-3 ovarian,32.8 µM
same,TGI,OVCAR-4 ovarian,> 100 µM
same,TGI,OVCAR-5 ovarian,> 100 µM
same,TGI,OVCAR-8 ovarian,31 µM
same,TGI,PC-3 prostate,35.5 µM
same,TGI,RPMI-8226 leukemia,60.2 µM
same,TGI,SF-268 CNS,33.1 µM
same,TGI,SF-295 CNS,30.9 µM
same,TGI,SF-539 CNS,27.1 µM
same,TGI,SK-MEL-2 melanoma,33.3 µM
same,TGI,SK-MEL-28 melanoma,28.6 µM
same,TGI,SK-MEL-5 melanoma,24.1 µM
same,TGI,SK-OV-3 ovarian,38.2 µM
same,TGI,SN12C renal,29.4 µM
same,TGI,SNB-19 CNS,40.4 µM
same,TGI,SNB-75 CNS,27.9 µM
same,TGI,SW-620 colon,32 µM
same,TGI,T-47D breast,37.8 µM
same,TGI,TK-10 renal,32.1 µM
same,TGI,U251 CNS,31.3 µM
same,TGI,UACC-257 melanoma,28.9 µM
same,TGI,UACC-62 melanoma,30.7 µM
same,TGI,UO-31 renal,32.1 µM

# — PubChem BioAssay (NCI)
